According to patent US9260393B2, “Solid state forms of N-((S)-2,3-dihydroxy-propyl)-3-(2-fluoro-4-iodo-phenylamino)-isonicotinamide” (Merck Patent GmbH, priority 2012, dated 2016):
Converted amounts (≈) assume the structure as drawn. “Also recorded” adds a separate entry of the source.

Key:
Assay type in all cases: physicochemical
[1] = Water Vapour Sorption isotherm (25° C.), DVS-1 System; details: for water uptake at elevated RH: above 80% RH
Description: (§1) The DSC scan of Form A1 was acquired on a Mettler-Toledo DSC 821 with a heating rate of 5 K/min, using nitrogen purge gas at 50 mL/min. […] Form A1 can be classified as non-hygroscopic according to Ph. Eur. Criteria (section 5.11.).
The DSC scan of Form A2 was acquired on a Mettler-Toledo DSC 821 with a heating rate of 5 K/min, using nitrogen purge gas at 50 mL/min. […] Eur. Criteria (section 5.11.). […]
(§2) Eur. criteria. […] Water Vapour Sorption isotherm was acquired on a DVS-1 System from SMS. • Solubility in USP phosphate buffer (pH 7.4) at 37° C. was determined to be approx. 70 μg/mL (see Example 7).

[2] = API dissolution studies in Flow-Through-Cell system; details: for dissolution in various buffer systems: 37° C., pH range 1.2 to 6.8; for % dissolved levels after 30 minutes: flow rate 16 mL/min
Description: Approximately 10 mg of Forms A1, A2 or B1, respectively, were accurately weighed and blended with 2 g glass beads in a Vortex mixer. The blends were then placed into a powder cell of a Flow-Through-Cell system. Dissolution studies were performed at 37° C. over 30-60 minutes at a constant flow rate of 16 mL/min. Fractions of dissolution medium after passing the Flow-Through-Cell were collected in 1 minute intervals in the first 10 minutes, in 5 minute intervals from 10-30 minutes, and in 15 minute intervals from 30-60 minutes. Dissolved levels of API in each fraction were analysed by HPLC. In dissolution experiments with HCl salt forms at pH 5.0 and pH 6.8, free base fractions which precipitated over time from the initially clear solutions in the collected dissolution fractions were re-dissolved by addition of sulphuric acid prior to HPLC analysis. All experiments were performed as triplicate preparations, with results reported as mean values from triplicates, and error bars as single standard deviations from the triplicates.

[3] = Thermal behaviour (DSC and TGA); details: heating rate 5 K/min
Description: as §1
The DSC scan of Form A2 was acquired on a Mettler-Toledo DSC 821 with a heating rate of 5 K/min, using nitrogen purge gas at 50 mL/min. […] Eur. Criteria (section 5.11.).
DSC scan of Form B1 was acquired on a Mettler-Toledo DSC 821 with a heating rate of 5 K/min, using nitrogen purge gas at 50 mL/min. […] Eur. criteria.
as §2

[4] = Solubility determinations of HCl salt forms vs. free base (DI water, 0.1 N HCl); details: for Solubility / Solid-state Residue (X-Ray-Diffraction): 37° C., 24 hours
Description: (§3) All dispersions were agitated at 37° C. for 24 hours. Dispersions were then filtered via the internal filter of the Uniprep vials, and clear filtrates were analysed by HPLC for dissolved quantities of Compound C.
(§4) Solid state residues were analysed by X-Ray-Diffraction for identity with the initially used materials.

[5] = Solvent-mediated competitive slurry conversion experiments with binary phase mixtures of Forms B1+B2; details: RT and 50° C.
Description: Approximately 10 mg of Compound C (free base) crystalline form B1 and approx. 5 mg of Compound C (free base) crystalline form B2 were dispersed in 200-1000 μL solvent in 4-mL glass vials. A PTFE-coated magnetic stirring bar was inserted into the dispersions, and the vials were tightly closed with a screw cap containing a septum. Dispersions were agitated for 5 days on a magnetic stirrer at ambient conditions (˜23° C.) and 50° C., respectively. Dispersions were then vacuum-filtrated over a Whatman paper filter, and collected filter residues were analysed by X-Ray-Diffraction for identity with the initially used materials.

[6] = Thermodynamic solubility of Forms B1 and B2 in USP Phosphate Buffer (pH 7.4); details: for Solid-state Residue (X-Ray-Diffraction): #1 + #2
Description: Approximately 17 mg of Compound C (free base) crystalline form B1 were dispersed in 2 mL USP Phosphate Buffer (pH 7.4) in Whatman Uniprep Syringless Filter vials in duplicate preparations.
Approximately 17 mg of Compound C (free base) crystalline form B2 were dispersed in 2 mL USP Phosphate Buffer (pH 7.4) in Whatman Uniprep Syringless Filter vials in duplicate preparations.
as §3, §4

[7] = 0.1N HCl, listed as HCl salt Form A1
[8] = 0.1N HCl, listed as HCl salt Form A2
[9] = relative humidity (RH) range 0-80% RH
[10] = 0.1N HCl, listed as Free Base Form B1
[11] = USP phosphate buffer (pH 7.4), 37° C., 24 hours

hygroscopicity (classification acc. to Ph. Eur. criteria, section 5.11.) [1] | dissolution kinetics as compared to forms B1 and B2 [2] | dissolution in various buffer systems [2] | thermal stability [3] | aqueous solubility compared to the free base [4] | solubility as compared to forms B1 and B2 [4] | Solubility ([4]; 0.1N HCl) | Solubility ([4]; DI Water) | Solid-state Residue (X-Ray-Diffraction) ([4]; Water) | water uptake at elevated RH [1] | water uptake levels [1, 9] [wt %] | Solid-state Residue (X-Ray-Diffraction) [6, 11] | SMILES | other results
slightly hygroscopic | faster | rapid and complete dissolution | sufficient | significantly improved | higher | > 20000 µg/mL | approx. 2.5 mg/mL | Free base Form B1 | – | – | – | O=C(NC[C@H](O)CO)c1ccncc1Nc1ccc(I)cc1F [Form A2, N—((S)-2,3-Dihydroxy-propyl)-3-(2-fluoro-4-iodo-phenylamino)-isonicotinamide] | Water Vapour Sorption behaviour [1]: small water uptake levels only; % dissolved levels after 30 minutes ([2]; pH 1.2, 37° C., listed as HCl Salt Form A2): 99%; % dissolved levels after 30 minutes ([2]; pH 3.0, 37° C., listed as HCl Salt Form A2): 100%; % dissolved levels after 30 minutes ([2]; pH 5.0, 37° C., listed as HCl Salt Form A2): 98%; % dissolved levels after 30 minutes ([2]; pH 6.8, 37° C., listed as HCl Salt Form A2): 96%; Solid-state Residue (X-Ray-Diffraction) [4, 8]: No residue obtained; Solubility [4, 8]: >20000 µg/mL; Solubility ([4]; DI Water, listed as HCl salt Form A2): 2500 µg/mL
slightly hygroscopic | – | – | sufficient | – | – | – | – | Free base Form B1 | slightly enhanced | < 1 | Free Base Form B1 | O=C(NC[C@H](O)CO)c1ccncc1Nc1ccc(I)cc1F [Form B1, N—((S)-2,3-Dihydroxy-propyl)-3-(2-fluoro-4-iodo-phenylamino)-isonicotinamide] | thermodynamic stability of free base forms B1 vs B2 [5]: thermodynamically more stable free base form; also recorded: thermodynamically stable; thermodynamic stability of free base forms B1 vs B2 ([5]; listed as form B1): more stable form; % dissolved levels after 30 minutes ([2]; pH 1.2, 37° C., listed as Free base Form B1): 100%; % dissolved levels after 30 minutes ([2]; pH 3.0, 37° C., listed as Free base Form B1): 83%; % dissolved levels after 30 minutes ([2]; pH 5.0, 37° C., listed as Free base Form B1): 57%; % dissolved levels after 30 minutes ([2]; pH 6.8, 37° C., listed as Free base Form B1): 52%; Solid-state Residue (X-Ray-Diffraction) [4, 10]: HCI salt Form A1; Solubility [4, 10]: 17500 µg/mL; Solubility ([4]; DI Water, listed as Free Base Form B1): <100 µg/mL; solubility at 24 h ([6]; USP phosphate buffer, 37 °C, pH 7.4, aqueous buffer, thermodynamic from solid, USP phosphate buffer (pH 7.4), 24 hours, duplicate preparations #1, #2): ~50 µg/mL (≈ 116 µM)
slightly hygroscopic | – | – | sufficient | – | – | – | – | – | slightly enhanced | ~1 | Free Base Form B1 | O=C(NC[C@H](O)CO)c1ccncc1Nc1ccc(I)cc1F [Form B2, N—((S)-2,3-Dihydroxy-propyl)-3-(2-fluoro-4-iodo-phenylamino)-isonicotinamide] | supersaturated solubility level compared to form B1 ([6]; PBS buffer pH 7.4, 37° C.): increased; Solubility ([6]; USP phosphate buffer (pH 7.4), 37° C., 24 hours, duplicate preparations #1, #2): approx. 70 μg/mL

SMILES | hygroscopicity (classification acc. to Ph. Eur. criteria, section 5.11.) [1] | dissolution kinetics as compared to forms B1 and B2 [2] | dissolution in various buffer systems [2] | thermal stability [3] | aqueous solubility compared to the free base [4] | solubility as compared to forms B1 and B2 [4] | Solubility ([4]; 0.1N HCl) | Solubility ([4]; DI Water) | Solid-state Residue (X-Ray-Diffraction) ([4]; Water) | water uptake at elevated RH [1] | water uptake levels [1, 9] [wt %] | Solid-state Residue (X-Ray-Diffraction) [6, 11] | other results
O=C(NC[C@H](O)CO)c1ccncc1Nc1ccc(I)cc1F [Form A1, N—((S)-2,3-Dihydroxy-propyl)-3-(2-fluoro-4-iodo-phenylamino)-isonicotinamide] | non-hygroscopic; also recorded: slightly hygroscopic | faster | rapid and complete dissolution | sufficient | significantly improved | higher | approx. 44 mg/mL | approx. 2.8 mg/mL | Free base Form B1 | – | – | – | water uptake levels ([1]; entire relative humidity range 0-98% RH): < 0.1 wt %; % dissolved levels after 30 minutes ([2]; pH 1.2, 37° C., listed as HCl Salt Form A1): 100%; % dissolved levels after 30 minutes ([2]; pH 3.0, 37° C., listed as HCl Salt Form A1): 100%; % dissolved levels after 30 minutes ([2]; pH 5.0, 37° C., listed as HCl Salt Form A1): 97%; % dissolved levels after 30 minutes ([2]; pH 6.8, 37° C., listed as HCl Salt Form A1): 96%; Solid-state Residue (X-Ray-Diffraction) [4, 7]: HCl salt Form A1; Solubility [4, 7]: 43600 µg/mL; Solubility ([4]; DI Water, listed as HCl salt Form A1): 2800 µg/mL
